Results taken from patent US20240327415A1, “Multicomponent Complexes, Including Salts, Crystalline Forms, and Hydrates and Solvates of ENT1 Inhibitors” (iTeos Belgium SA, priority 2023, published 2024).

Assays:
Assay type in all cases: physicochemical
[1] = hydration mapping studies (slurries at different water activities, Example 17); settings: aw 0.1, dried 40° C. reduced pressure 24 hr
Experimental: Example 17—Hydration Mapping Studies-Crystalline Form 2 Compound 1 di(hydrogen sulfate) trihydrate, Crystalline Form 3 Compound 1 di(hydrogen sulfate), and Blend: The effects of different water activities on crystalline Form 2 Compound 1 di(hydrogen sulfate) trihydrate, crystalline Form 3 Compound 1 di(hydrogen sulfate) and a blend of the two were investigated. The “blend” was prepared by mixing crystalline Form 2 Compound 1 di(hydrogen sulfate) trihydrate and crystalline Form 3 Compound 1 di(hydrogen sulfate) in a 1:1 ratio. To the vials containing the required solid material, the appropriate solvent system was added to form slurries. The slurry samples were stirred at the required temperatures during and after the solvent addition. Where dissolution was observed post-solvent addition, additional solid was added to re-saturate the sample. After stirring at the required temperature for 48 hours, the residual solids left in the vials were analyzed by XRPD to assess the solid forms. The analyzed samples were then dried on the XRPD plate under reduced pressure at 40° C. for 24 hr. The dried samples were analyzed by XRPD.

[2] = seven-day solid stability studies (ambient; 40° C./75% RH; 80° C.), XRPD and HPLC; set-up: key: Crystalline Form 3 di(hydrogen sulfate); Crystalline Form 9 di(hydrogen sulfate); Melt/Amorphous; settings: 7 days, sealed
Experimental: (§1) In the experiment, one set of vials was exposed to ambient light, temperature and humidity conditions. Another was exposed openly to 40° C. and 75% RH conditions and a third was sealed and exposed to 80° C. conditions. After 7 days, XRPD and HPLC measurements were collected.
(§2) Example 12-Stability Studies of Amorphous Compound 1 (free base) and Crystalline Form 1 Compound 1 (free base): Seven-day stability studies were carried out comparing amorphous Compound 1 (free base) and crystalline Form 1 Compound 1 (free base) at 40° C./75% RH, under ambient conditions and at 80° C. After storage at 40° C./75% RH and 80° C., the amorphous material formed glassy solids which were pale yellow (40° C./75% RH) or orange (80° C.). It is likely that the material melted and re-solidified at 80° C. and deliquesced at 40° C./75% RH. […] (decrease in purity of ca. 11% area).
(§3) Example 15-Stabilities Studies-Crystalline Form 3 Compound 1 di(hydrogen sulfate) and Crystalline Form 4 Compound 1 mono(hydrogen sulfate): Seven-day stability studies were carried out on the prepared crystalline Form 3 Compound 1 di(hydrogen sulfate) and crystalline Form 4 Compound 1 mono(hydrogen sulfate) using the following conditions: (1) Ambient light, temperature and humidity conditions (open vial); (2) 40° C./75% RH (open vial); and (3) 80° C. (closed vial). […]

[3] = as above
Experimental: as §1, §2
Example 15-Stabilities Studies-Crystalline Form 3 Compound 1 di(hydrogen sulfate) and Crystalline Form 4 Compound 1 mono(hydrogen sulfate): Seven-day stability studies were carried out on the prepared crystalline Form 3 Compound 1 di(hydrogen sulfate) and crystalline Form 4 Compound 1 mono(hydrogen sulfate) using the following conditions: (1) Ambient light, temperature and humidity conditions (open vial); (2) 40° C./75% RH (open vial); and (3) 80° C. (closed vial). After 7 days of storage under the specified conditions, XRPD and HPLC analyses were carried out on the residual solid materials, and the results are summarized in Table 51.
Example 18-Seven Day Stability Study on Crystalline Form 2 Compound 1 di(hydrogen sulfate) trihydrate: A 7-day stability study was conducted on crystalline Form 2 Compound 1 di(hydrogen sulfate) trihydrate using the following conditions: (1) ambient light, temperature, and humidity conditions (open vial); (2) 40° C., 75% RH (open vial); and (3) 80° C. (closed vial). After 7 days of storage under the specified, XRPD and HPLC analyses were carried out on the residual solid materials.

[4] = as above; set-up: key: Crystalline Form 2 di(hydrogen sulfate) trihydrate; Crystalline Form 3 di(hydrogen sulfate); M4: Crystalline Form 4 mono(hydrogen sulfate); Crystalline Form 6 di(hydrogen sulfate); 3 + 9: Mixture of Crystalline Form 3 di(hydrogen sulfate) and Crystalline Form 9 di(hydrogen sulfate); settings: 7 days, 80° C. (closed vial)
Experimental: as §1, §2, §3

[5] = salt screen, XRPD of damp, dried and 40° C./75% RH stored samples (Salt Preparation Methods 1 and 2); settings: AS Heptane; for XRPD Analysis Damp / XRPD Analysis Dry: L-Malic acid, 1 equiv.
Method in brief: (§4)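 XRPD was recorded three times: on damp solids isolated at 5 °C, after ~17–91 h vacuum drying at ~40 °C, and after 24–48 h storage at 40 °C/75% RH. Solids came from stirring free base with 1.0 or 2.0 equiv. counterion at 40 °C, 40–5 °C temperature cycling, and anti-solvent addition.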

[6] = as above; set-up: key: A = amorphous; 1 = Form 1 Compound 1 hydrogen chloride; PC = poorly crystalline; settings: AS Heptane
Experimental: (§5) Salt Preparation Method 1: Approximately 25 mg of Compound 1 (free base) was weighed out into 1.5 mL screw-cap vials and a stirrer bar was added. For solid counterions, the appropriate amount of acid (1.0 or 2.0 equiv.) was weighed into separate 1.5 mL screw-cap vials. 100 μL of the appropriate solvent system was added to both the Compound 1 and the solid counterions. Stock solutions of liquid counterions were prepared, such that 100 μL contained 1.0 or 2.0 equiv. of acid. See counterion and solvent lists in Table 60 and Table 61 respectively.
(§6) The samples were stirred at 40° C. for 5-10 min and then the acid solutions were added to Compound 1, rinsing out the transfer vial with a further 50 μL of solvent. […] Experiments were temperature cycled between 40° C. and 5° C. (1 h hold; 0.1° C./min ramp/cool) for ca. 24-68 h. Anti-solvent addition (ASA) was carried out to slurries at 5° C. then experiments were heated to 30° C. over 1 h. ASA was carried out at 30° C. or 40° C. where clear solutions or gums were observed.
(§7) Temperature cycling was then continued for ca. 16-69 h, followed by further ASA and temperature cycling if required. Material was isolated at 5° C. and analyzed damp by XRPD. All isolated material was dried under vacuum at ca. 40° C. for ca. 17-91 h then re-analyzed by XRPD. The XRPD plate was stored at 40° C./75% RH for 24-48 h and then samples re-analyzed. Solutions were stored uncapped at ambient temperature to evaporate. Any residual solids were analyzed by XRPD.
(§8) Salt Preparation Method 2: The general procedure adopted in preparing the potential salts is outlined below. A known mass of Compound 1 (free base) and a known volume of the appropriate solvent system were added to 20 mL scintillation vials. The required mol. equiv. of the appropriate counterions were added to the vials as solutions or slurries in the corresponding solvent system.
(§9) The experiments were stirred at 40° C. for ca. 1 h, and then temperature cycled between 40° C. and 5° C. with 0.1° C./min ramp and 1 h hold between each step. Anti-solvent additions and subsequent slurrying at 5° C. were employed in order to facilitate crystallization. […] The damp and dried solids were subsampled and analyzed by XRPD. Where applicable, the dried solids were stored at 40° C./75% RH for 24-48 h in order to improve the crystallinity and/or facilitate solid form conversion to the desired form.

[7] = as above; set-up: key: A = amorphous; Evap. = isolated via evaporation
Method in brief: as §4

[8] = as above; set-up: key: A = amorphous; * = predominantly; 1 = Form 1 Compound 1 L-malate; 2 = Form 2 Compound 1 L-malate; settings: L-Malic acid, 1 equiv.; MEK; AS Heptane
Experimental: as §5
The samples were stirred at 40° C. for 5-10 min and then the acid solutions were added to Compound 1, rinsing out the transfer vial with a further 50 μL of solvent. […] Experiments were temperature cycled between 40° C. and 5° C. […]
Temperature cycling was then continued for ca. 16-69 h, followed by further ASA and temperature cycling if required. Material was isolated at 5° C. and analyzed damp by XRPD. All isolated material was dried under vacuum at ca. 40° C. for ca. 17-91 h then re-analyzed by XRPD. The XRPD plate was stored at 40° C./75% RH for 24-48 h and then samples re-analyzed. […] Any residual solids were analyzed by XRPD. […]
The experiments were stirred at 40° C. for ca. 1 h, and then temperature cycled between 40° C. and 5° C. with 0.1° C./min ramp and 1 h hold between each step. […] The damp and dried solids were subsampled and analyzed by XRPD. […]

[9] = as above; set-up: key: A = amorphous; PC = poorly crystalline; 1 = Form 1 Compound 1 hydrogen phosphate; 2 = Form 2 Compound 1 hydrogen phosphate; 3 = Form 3 Compound 1 hydrogen phosphate; 4 = Form 4 Compound 1 hydrogen phosphate; settings: Phosphoric acid, 1 equiv.
Experimental: as §5, §6, §7, §8, §9

[10] = Hydrochloric acid, 2 equiv., Ethanol*
[11] = Hydrochloric acid, 2 equiv., Acetonitrile, AS tBME
[12] = Hydrochloric acid, 2 equiv., Ethyl acetate, AS Heptane
[13] = Hydrochloric acid, 2 equiv., IPA:H2O (75:25% v/v), AS tBME
[14] = Hydrochloric acid, 2 equiv., MEK, AS Heptane
[15] = Hydrochloric acid, 2 equiv., THF, AS Heptane
[16] = L-Malic acid, 1 equiv., Acetonitrile, AS tBME
[17] = L-Malic acid, 1 equiv., Ethyl acetate, AS Heptane
[18] = L-Malic acid, 1 equiv., IPA:H2O (75:25% v/v), AS tBME
[19] = L-Malic acid, 1 equiv., THE, AS Heptane
[20] = Phosphoric acid, 1 equiv., Ethyl acetate
[21] = Phosphoric acid, 1 equiv., Acetonitrile, AS tBME
[22] = Phosphoric acid, 1 equiv., IPA:H2O (75:25% v/v), AS tBME

COc1cc(C(=O)O[C@@H]2CCCOc3cc(cc(OC)c3OC)C(=O)NCCCN3CCCN(CC2)CC3)cc(OC)c1OC.O=S(=O)(O)O.O=S(=O)(O)O [Form 3 di(hydrogen sulfate)]
99.80 % area: HPLC ([3]; 7 days, 80° C. (closed vial)) | HPLC ([3]; 7 days, 80° C., sealed)
99.83 % area: HPLC ([3]; Input sample)
9: XRPD [2]
1, PC: XRPD, hydration studies - dried samples ([1]; 50° C., 2-Propanol:Water)
99.82 % area: HPLC ([3]; 7 days, 40° C./75% RH (open vial)) | HPLC ([3]; 7 days, 40° C./75% RH, open vial)
3, PC: XRPD, hydration studies - dried samples ([1]; 20° C., 2-Propanol:Water) | XRPD, hydration studies - dried samples ([1]; 20° C., Acetonitrile:Water) | XRPD, hydration studies - dried samples ([1]; 50° C., Acetonitrile:Water)
3 + 9: XRPD [4]
99.84 % area: HPLC ([3]; 7 days, Ambient (open vial)) | HPLC ([3]; 7 days, Ambient, open vial)

Cl [Hydrochloric acid, 2 equiv.]
1 (PC): XRPD Analysis 40° C. 75% RH [5, 10]
1: XRPD Analysis Damp [6, 10] | XRPD Analysis Dry [6, 10]
A: XRPD Analysis 40° C. 75% RH [7, 11] | XRPD Analysis Damp [7, 11] | XRPD Analysis Dry [7, 11] | XRPD Analysis 40° C. 75% RH [7, 12] | XRPD Analysis Damp [7, 12] | XRPD Analysis Dry [7, 12] | XRPD Analysis 40° C. 75% RH [7, 13] | XRPD Analysis Damp [7, 13] | XRPD Analysis Dry [7, 13] | XRPD Analysis 40° C. 75% RH [7, 14] | XRPD Analysis Damp [7, 14] | XRPD Analysis Dry [7, 14] | XRPD Analysis 40° C. 75% RH [7, 15] | XRPD Analysis Damp [7, 15] | XRPD Analysis Dry [7, 15]

O=C(O)CC(O)C(=O)O [L-Malic acid, 1 equiv.]
1: XRPD Analysis 40° C. 75% RH [8]
* A: XRPD Analysis Damp ([5]; Ethanol) | XRPD Analysis Dry ([5]; Ethanol)
1 + 2: XRPD Analysis Damp ([5]; MEK) | XRPD Analysis Dry ([5]; MEK)
A: XRPD Analysis 40° C. 75% RH [7, 16] | XRPD Analysis Damp [7, 16] | XRPD Analysis Dry [7, 16] | XRPD Analysis 40° C. 75% RH ([7]; L-Malic acid, 1 equiv., Ethanol, AS Heptane) | XRPD Analysis 40° C. 75% RH [7, 17] | XRPD Analysis Damp [7, 17] | XRPD Analysis Dry [7, 17] | XRPD Analysis 40° C. 75% RH [7, 18] | XRPD Analysis Damp [7, 18] | XRPD Analysis Dry [7, 18] | XRPD Analysis 40° C. 75% RH [7, 19] | XRPD Analysis Damp [7, 19] | XRPD Analysis Dry [7, 19]

O=P(O)(O)O [Phosphoric acid, 1 equiv.]
3: XRPD Analysis Damp ([9]; MEK, AS Heptane)
1: XRPD Analysis 40° C. 75% RH ([9]; Ethanol, AS Heptane) | XRPD Analysis Damp ([9]; Ethanol, AS Heptane) | XRPD Analysis Dry ([9]; Ethanol, AS Heptane) | XRPD Analysis 40° C. 75% RH ([9]; THF, AS Heptane) | XRPD Analysis Damp ([9]; THF, AS Heptane) | XRPD Analysis Dry ([9]; THF, AS Heptane)
2: XRPD Analysis 40° C. 75% RH ([9]; Ethyl acetate, AS Heptane) | XRPD Analysis 40° C. 75% RH ([9]; MEK, AS Heptane) | XRPD Analysis Dry ([9]; MEK, AS Heptane)
4: XRPD Analysis 40° C. 75% RH ([9]; Acetonitrile, AS tBME)
A: XRPD Analysis Damp [7, 21] | XRPD Analysis Dry [7, 21] | XRPD Analysis 40° C. 75% RH [7, 22] | XRPD Analysis Damp [7, 22] | XRPD Analysis Dry [7, 22]
PC: XRPD Analysis Damp [6, 20] | XRPD Analysis Dry [6, 20]
